Experimental findings from patent US9969716B2, “Indole derivatives as modulators of methyl modifying enzymes, compositions and uses thereof” (Constellation Pharmaceuticals, Inc., priority 2013, dated 2018) are described below.

One test has as its target Y641N EZH2 (Homo sapiens, UniProt Q15910, Y641N). In words: Y641N EZH2 assay (as EZH2 assay, H3K27Me2 oligonucleosomes as substrate). It counts as biochemical. On the procedure: (§1) EZH2 Assay: Assays were carried out by mixing rPRC2 together with biotinylated oligonucleosome substrates in the presence of the radio-labeled enzyme co-factor, S-adenosyl-L-methionine (^3H SAM) (Perkin Elmer) and monitoring the enzymatically mediated transfer of tritiated methyl groups from ^3H SAM to histone lysine residues. The amount of resulting tritiated methyl histone product was measured by first capturing the biotinylated oligonucleosomes in streptavidin (SAV) coated FlashPlates (Perkin Elmer), followed by a wash step to remove un-reacted ^3H SAM, and then counting on a TopCount NXT 384 well plate scintillation counter (Perkin Elmer). The final assay conditions for EZH2 were as follows: 50 mM Tris Buffer pH 8.5, 1 mM DTT, 69 μM Brij-35 detergent, 5.0 mM MgCl2, 0.1 mg/mL BSA, 0.2 μM ^3H SAM, 0.2 μM biotinylated oligonucleosomes, 3.6 μM H3K27me3 peptide and 2 nM EZH2.
(§2) A 12.5 μL volume of the HMT enzyme, H3K27me3 peptide and oligonucleosome substrate in assay buffer was added to each well of the assay plate using a Multidrop Combi (ThermoFisher). Compounds were pre-incubated with the enzyme for 20 min, followed by initiation of the methyltransferase reaction by addition of 12.5 μL of ^3H SAM in assay buffer (final volume=25 μL). The final concentrations of compounds ranged from a top default concentration of 80 μM down to 0.16 μM in ten 2-fold dilution steps. Reactions were carried out for 60 minutes and quenched with 20 μL per well of 1.96 mM SAH, 50 mM Tris pH 8.5, 200 mM EDTA. Stopped reactions were transferred to SAV coated Flashplates (Perkin Elmer), incubated for 120 min, washed with a plate washer, and then read on the TopCount NXT (1.0 min/well) to measure the amount of methyl histone product formed during the reaction.

Another test deals with EZH2 (Homo sapiens, UniProt Q15910). In words: EZH2 assay (rPRC2, 3H SAM methyl transfer to biotinylated oligonucleosomes, FlashPlate). It counts as biochemical. The procedure:
as §1, §2

For test [1], the system named is H3K27me3 mark in HeLa cells. In words: H3K27me3 Alpha Hela Assay (AlphaLISA). Format: cell-based. As to conditions: Homo sapiens, 72 hrs, read-out: EZH2_Cell_H3K27me3_Alpha_HeLa (EC50_K27me3). The procedure: Ten different doses of each test compound (in a series of 3-fold dilutions) were plated in duplicate 384-well tissue culture treated plates (Catalog #781080; Greiner Bio One; Monroe, N.C.). Hela cells grown in culture were trypsinized and counted using a Countess® cell counter (Catalog # C10281; Life Technologies, Grand Island, N.Y.). Cell were diluted to 67,000 cells per mL in 10% DMEM (Catalog #10569-010 Life Technologies, Grand Island, N.Y.) and 15 μL (1,000 cells) were plated into each well using the Biotek MicroFlo™ Select Dispenser (BioTek Instruments, Inc. Vermont, USA),) of the 384-well plate. Plates were incubated at 37° C./5% CO2 for 72 hrs. One of the duplicate plates was processed for HeLa assay and the other for viability.
To the plate processed for AlphaLISA was added 5 μL per well Cell-Histone Lysis buffer (1λ) (Catalog # AL009F1 Perkin Elmer; Waltham, Mass.) and the plate was incubated at RT for 30 minutes on a plate shaker with low speed (Model#4625-Q Thermo Scientific; Waltham, Mass.). Then, 10 μL per well Histone Extraction buffer (catalog # AL009F2; Perkin Elmer; Waltham, Mass.) was added and the plate further incubated at RT for 20 min on plate shaker with low speed. To each well was then added 10 μL per well of a 5× mix of anti-K27me3 acceptor beads plus Biotinylated anti-Histone H3 (C-ter) Antibody (diluted to 3 nM final) (Catalog #AL118 Perkin Elmer; Waltham, Mass.). Dilution of the acceptor beads and then anti-Histone H3 was with 1× Histone Detection buffer (Catalog # AL009F3 Perkin Elmer; Waltham, Mass.) which was produced diluted from the 10× stock provided. The plate was sealed with an aluminum plate sealer and incubated at 23° C. for 60 min. We then added 10 μL 5× solution of Streptavidin Donor beads (Catalog #6760002 Perkin Elmer; Waltham, Mass.) (20 μg/mL final in 1× Histone Detection Buffer), sealed the plate with Aluminum plate sealer and incubated at 23° C. for 30 min. The plates were then read using an EnVision-Alpha Reader (model #2104 Perkin Elmer; Waltham, Mass.).
Data from both assays was analyzed using Assay Assistant (Constellation Pharmaceuticals In-house product) and Activity Base (IDBS Ltd, Surrey, UK) template. Data files were imported to Assay Assistant and assay conditions were specified. A unique Analysis ID was created and the data files exported to Activity Base. An analysis template was created on Activity Base to measure dose-dependent inhibition of H3K27me3 mark and cell viability respectively. Readout of DMSO wells were used to normalize the data. Resulting curves were fitted using Activity base software Model 205 (IDBS Ltd, Surrey, UK). The data was checked for quality, validated and integrated in excel format using SARview (IDBS Ltd, Surrey, UK).
A general note: Alpha assays give light when donor and acceptor beads are brought close together.

[2] abbreviates: Y641N EZH2, reconstituted H3K27Me2 oligonucleosomes as substrate, read-out: EZH2_Y641N_nuc_BSA_Brij_6.0 (IC50).
[3] abbreviates: 2 nM EZH2, 0.2 μM 3H SAM, 0.2 μM biotinylated oligonucleosomes, 3.6 μM H3K27me3 peptide, 60 min, read-out: EZH2_nuc_BSA_Brij_1.5 (IC50).

Where two headings read alike, the source gives them in different places.

Y641N EZH2, sequence (Q15910 whole entry Y641N): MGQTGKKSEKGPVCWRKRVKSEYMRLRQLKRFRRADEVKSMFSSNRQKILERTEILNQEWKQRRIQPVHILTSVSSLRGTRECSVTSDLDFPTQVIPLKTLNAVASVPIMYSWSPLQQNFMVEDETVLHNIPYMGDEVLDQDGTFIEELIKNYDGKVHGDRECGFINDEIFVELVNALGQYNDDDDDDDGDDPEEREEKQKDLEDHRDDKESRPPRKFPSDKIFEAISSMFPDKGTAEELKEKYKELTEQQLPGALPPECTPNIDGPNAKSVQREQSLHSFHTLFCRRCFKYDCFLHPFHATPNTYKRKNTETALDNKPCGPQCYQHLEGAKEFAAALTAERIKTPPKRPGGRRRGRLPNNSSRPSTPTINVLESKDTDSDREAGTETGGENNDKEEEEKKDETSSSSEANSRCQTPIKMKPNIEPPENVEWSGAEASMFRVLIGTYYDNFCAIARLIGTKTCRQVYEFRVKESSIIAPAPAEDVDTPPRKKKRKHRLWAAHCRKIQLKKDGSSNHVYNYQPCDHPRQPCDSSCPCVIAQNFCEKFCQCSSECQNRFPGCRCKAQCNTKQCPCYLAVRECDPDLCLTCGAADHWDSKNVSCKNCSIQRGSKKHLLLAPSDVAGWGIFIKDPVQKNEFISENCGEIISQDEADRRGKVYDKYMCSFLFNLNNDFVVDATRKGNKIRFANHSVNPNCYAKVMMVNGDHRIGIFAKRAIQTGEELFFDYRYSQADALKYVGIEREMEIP
Y641N EZH2, sequence (O75530 whole entry partner): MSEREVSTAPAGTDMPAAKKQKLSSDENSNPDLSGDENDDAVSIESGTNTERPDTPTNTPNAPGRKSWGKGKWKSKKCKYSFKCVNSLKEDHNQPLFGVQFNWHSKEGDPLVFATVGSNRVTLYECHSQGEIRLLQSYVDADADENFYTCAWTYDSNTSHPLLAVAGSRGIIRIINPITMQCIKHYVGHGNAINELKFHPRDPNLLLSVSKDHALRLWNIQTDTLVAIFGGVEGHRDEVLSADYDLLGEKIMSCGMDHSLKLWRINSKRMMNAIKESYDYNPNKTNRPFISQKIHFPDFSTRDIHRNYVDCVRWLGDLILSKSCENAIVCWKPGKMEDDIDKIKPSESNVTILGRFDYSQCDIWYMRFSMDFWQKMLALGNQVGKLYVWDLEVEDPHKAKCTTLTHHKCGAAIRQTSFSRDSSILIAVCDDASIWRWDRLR
Y641N EZH2, sequence (Q15022 whole entry partner): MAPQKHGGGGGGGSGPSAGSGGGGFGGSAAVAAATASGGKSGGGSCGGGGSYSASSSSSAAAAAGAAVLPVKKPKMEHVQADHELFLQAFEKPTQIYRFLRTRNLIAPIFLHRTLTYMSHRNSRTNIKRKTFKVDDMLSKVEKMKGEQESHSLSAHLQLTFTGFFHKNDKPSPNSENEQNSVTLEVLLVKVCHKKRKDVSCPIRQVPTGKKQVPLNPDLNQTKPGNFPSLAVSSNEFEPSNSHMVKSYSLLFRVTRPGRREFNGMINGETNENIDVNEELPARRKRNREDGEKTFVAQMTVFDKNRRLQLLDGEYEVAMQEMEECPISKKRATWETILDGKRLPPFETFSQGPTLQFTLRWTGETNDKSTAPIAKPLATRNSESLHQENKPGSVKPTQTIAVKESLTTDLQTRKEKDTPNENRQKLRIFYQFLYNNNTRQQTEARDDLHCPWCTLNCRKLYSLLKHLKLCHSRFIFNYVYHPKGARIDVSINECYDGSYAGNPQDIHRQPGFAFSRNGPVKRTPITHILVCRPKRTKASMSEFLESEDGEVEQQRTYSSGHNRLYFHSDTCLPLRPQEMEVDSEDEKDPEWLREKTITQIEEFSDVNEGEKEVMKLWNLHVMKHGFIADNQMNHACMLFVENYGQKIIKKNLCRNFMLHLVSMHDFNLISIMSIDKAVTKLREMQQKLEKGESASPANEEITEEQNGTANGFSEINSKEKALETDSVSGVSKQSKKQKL
EZH2, sequence (Q15910 whole entry): as the sequence (Q15910 whole entry Y641N) above, with N641Y counted along it
EZH2, sequence (O75530 whole entry partner): as the sequence (O75530 whole entry partner) above
EZH2, sequence (Q15022 whole entry partner): as the sequence (Q15022 whole entry partner) above

By IC50 is commonly meant the concentration that inhibits the measured activity by half. Regarding `Cc1cc(C)c(CNC(=O)c2c(C)n([C@H](C)C3CCN(c4ccc(CN5CCOCC5)cc4)CC3)c3ccccc23)c(=O)[nH]1` [Compound 160], the IC50 at Y641N EZH2 and on EZH2 was less than 100 nM in each case. The EC50 in test [1] was in the range of 400 to 2000 nM.

With `Cc1cc(Cl)c(CNC(=O)c2c(C)n([C@H](C)C3CCN(CC(F)F)CC3)c3ccccc23)c(=O)[nH]1` [Compound 106], the 50% inhibitory concentration (IC50) against Y641N EZH2 and against EZH2 was less than 100 nM throughout. For the same compound, the EC50 in test [1] was less than 400 nM.

With `COc1cc(C)[nH]c(=O)c1CNC(=O)c1c(C)n([C@H](C)C2CCN(c3ncc(Br)cn3)CC2)c2ccccc12` [Compound 124, (R)-1-(1-(1-(5-bromopyrimidin-2-yl)piperidin-4-yl)ethyl)-N-((4-methoxy-6-methyl-2-oxo-1,2-dihydropyridin-3-yl)methyl)-2-methyl-1H-indole-3-carboxamide], the IC50 against Y641N EZH2 and on EZH2 was less than 100 nM in each case. Also, the EC50 in test [1] is less than 400 nM.

Consider `Cc1cc(Cl)c(CNC(=O)c2c(C)n([C@H](C)C3CCN(CC(C)(F)F)CC3)c3ccccc23)c(=O)[nH]1` [Compound 105], for which the IC50 at Y641N EZH2 and against EZH2 was less than 100 nM throughout. For the same compound, the EC50 in test [1] was less than 400 nM.

On to `COc1cc(C)[nH]c(=O)c1CNC(=O)c1c(C)n([C@H](C)C2CCN(C(=O)N(C)C)CC2)c2ccccc12` [Compound 158], for which the IC50 at Y641N EZH2 and on EZH2 was less than 100 nM throughout. The EC50 in test [1] lay in the range of 400 to 2000 nM.

Consider `Cc1cc(C)c(CNC(=O)c2c(C)n([C@H](C)C3CCN(S(=O)(=O)C4CCN(C)CC4)CC3)c3ccccc23)c(=O)[nH]1` [Compound 139], for which the IC50 against Y641N EZH2 and at EZH2 was less than 100 nM each time. Besides, the EC50 in test [1] was less than 400 nM.

Consider `CNc1cc(C)[nH]c(=O)c1CNC(=O)c1c(C)n([C@H](C)C2CCN(c3ncc(F)cn3)CC2)c2ccccc12` [Compound 146], for which the IC50 against Y641N EZH2 and on EZH2 was less than 100 nM each time. The EC50 in test [1] was in the range of 400 to 2000 nM.

Take `CCc1cc(C)[nH]c(=O)c1CNC(=O)c1c(C)n([C@H](C)C2CCN(CCC(F)(F)F)CC2)c2ccccc12` [Compound 151]: the IC50 against Y641N EZH2 and on EZH2 was less than 100 nM in each case. In test [1], the EC50 fell in the range of 400 to 2000 nM.

Regarding `COc1cc(C)[nH]c(=O)c1CNC(=O)c1c(C)n([C@H](C)C2CCN(c3ccc(C)nc3)CC2)c2ccccc12` [Compound 133], the half-maximal inhibitory concentration (IC50) on Y641N EZH2 and at EZH2 was less than 100 nM each time. Moreover, the EC50 in test [1] was less than 400 nM.

Take `COc1cc(C)[nH]c(=O)c1CNC(=O)c1c(C)n([C@H](C)C2CCN(CCCC(F)(F)F)CC2)c2ccccc12` [Compound 152]: the IC50 at Y641N EZH2 and on EZH2 was less than 100 nM throughout. Also, in test [1], the EC50 lay within 400 to 2000 nM.

As to `Cc1cc(OC(F)F)c(CNC(=O)c2c(C)n([C@H](C)C3CCN(CC(C)(F)F)CC3)c3ccccc23)c(=O)[nH]1` [Compound 111], the IC50 on Y641N EZH2 and against EZH2 was less than 100 nM each time. Also, in test [1], the EC50 was less than 400 nM.

Regarding `COc1cc(C)[nH]c(=O)c1CNC(=O)c1c(C)n([C@H](C)C2CCN(C(=O)C3(C(F)(F)F)CCC3)CC2)c2ccccc12` [Compound 104], the IC50 against Y641N EZH2 and against EZH2 was less than 100 nM throughout. The EC50 in test [1] is less than 400 nM.

With `COc1cc(C)[nH]c(=O)c1CNC(=O)c1c(C)n([C@H](C)C2CCN(c3cnccn3)CC2)c2ccccc12` [Compound 149], the half-inhibitory concentration (IC50) against Y641N EZH2 and at EZH2 was less than 100 nM in each case. The EC50 in test [1] was 400 to 2000 nM.

Regarding `COc1cc(C)[nH]c(=O)c1CNC(=O)c1c(C)n([C@H](C)C2CCN(c3ccc(F)cc3)CC2)c2ccccc12` [Compound 141], the IC50 against Y641N EZH2 and at EZH2 was less than 100 nM in each case. In addition, in test [1], the EC50 was less than 400 nM.

Take `Cc1cc(C)c(CNC(=O)c2c(C)n([C@H](C)C3CCN(c4cccc(CN5CCOCC5)c4)CC3)c3ccccc23)c(=O)[nH]1` [Compound 144]: the IC50 against Y641N EZH2 and at EZH2 was less than 100 nM each time. The EC50 in test [1] lay within 400 to 2000 nM.

With `COc1cc(C)[nH]c(=O)c1CNC(=O)c1c(C)n([C@H](C)C2CCN(Cc3ccccn3)CC2)c2ccccc12` [Compound 148], the IC50 on Y641N EZH2 and against EZH2 was less than 100 nM each time. The EC50 in test [1] is 400 to 2000 nM.

Regarding `Cc1cc(C)c(CNC(=O)c2c(C)n([C@H](C)C3CCN(S(=O)(=O)C4CNC4)CC3)c3ccccc23)c(=O)[nH]1` [Compound 171], the IC50 at Y641N EZH2 (setting [2]) and at EZH2 (setting [3]) was less than 100 nM each time.

`Cc1cc(C)c(CNC(=O)c2c(C)n([C@H](C)C3CCN(S(=O)(=O)C4CCNCC4)CC3)c3ccccc23)c(=O)[nH]1` [Compound 172]: the IC50 at Y641N EZH2 (setting [2]) and at EZH2 (setting [3]) was less than 100 nM throughout.

Regarding `COc1cc(C)[nH]c(=O)c1CNC(=O)c1c(C)n([C@H](C)C2CCN(C)CC2F)c2ccccc12` (stereo partly shown) [Compound 221], the IC50 against EZH2 is less than 100 nM. The EC50 in test [1] was less than 400 nM.

In turn, `COC(C)(C)CN1CCC([C@@H](C)n2c(C)c(C(=O)NCc3c(Cl)cc(C)[nH]c3=O)c3ccccc32)CC1` [Compound 262] yielded an IC50 on EZH2 of less than 100 nM. In addition, in test [1], the EC50 was less than 400 nM.

`COc1cc(C)[nH]c(=O)c1CNC(=O)c1c(C)n([C@H](C)C2CCN(Cc3cc(C)nc(C)c3)CC2)c2ccccc12` [Compound 252] had an IC50 at EZH2 of less than 100 nM. In test [1], the EC50 was less than 400 nM.

Turning to `COc1cc(C)[nH]c(=O)c1CNC(=O)c1c(C)n([C@H](C)C2CCN(C(=O)C3(C)CCCC3)CC2)c2ccccc12` [Compound 191], the IC50 against EZH2 was less than 100 nM. Moreover, in test [1], the EC50 is 400 to 2000 nM.

Regarding `COc1cc(C)[nH]c(=O)c1CNC(=O)c1c(C)n([C@H](C)C2CCN(CC(F)(F)CO)CC2)c2ccccc12` [Compound 175], the IC50 at EZH2 is less than 100 nM. In test [1], the EC50 was in the range of 400 to 2000 nM.

Consider `COc1cc(C)[nH]c(=O)c1CNC(=O)c1c(C)n([C@H](C)C2CCN(C(=O)C3(C)CC3)CC2)c2ccccc12` [Compound 190], for which the IC50 at EZH2 was less than 100 nM. For the same compound, the EC50 in test [1] is 400 to 2000 nM.

For the compound `COc1cc(C)[nH]c(=O)c1CNC(=O)c1c(C)n([C@H](C)C2CCN(C(=O)C3CC3(F)F)CC2)c2ccccc12` (stereo partly shown) [Compound 229], the IC50 on EZH2 is less than 100 nM. In addition, in test [1], the EC50 lay within 400 to 2000 nM.

Turning to `COc1cc(C)[nH]c(=O)c1CNC(=O)c1c(C)n([C@H](C)C2CCN(CCC#N)CC2)c2ccccc12` [Compound 206], at EZH2, the IC50 is less than 100 nM. For the same compound, the EC50 in test [1] was less than 400 nM.

`COc1cc(C)[nH]c(=O)c1CNC(=O)c1c(C)n([C@H](C)C2CCN(Cc3cnccc3C#N)CC2)c2ccccc12` [Compound 268] registered a 50% inhibitory concentration (IC50) at EZH2 of less than 100 nM. In addition, in test [1], the EC50 was less than 400 nM.
